Among the data in patent US12617747B2, “Cannabinoid analogs and methods for their preparation” (InMed Pharmaceuticals Inc., priority 2018, dated 2026) are EC50 values, retold here.

The structures appear in SMILES notation.

The target in the test is T1, human CB2 receptor (Homo sapiens, UniProt P34972).
T1 construct: HA; expressed in transfected cells
The test can be described thus: CB2 receptor agonist activity in AtT20 cells stably expressing HA-tagged human CB2 receptors. Type of test: cell-based. Particulars: method of Udoh et al. 2019. The text has this:
The activity of 5-fluorocannabichromene (5F-CBC) was studied in AtT20 cells stably expressing HA-tagged human CB1 and CB2 receptors, as described by Udoh, et al. (“Cannabichromene is a cannabinoid CB2 receptor agonist.” British Journal of Pharmacology, 2019, doi: 10.1111/bph.14815).

T1 sequence (P34972 whole entry): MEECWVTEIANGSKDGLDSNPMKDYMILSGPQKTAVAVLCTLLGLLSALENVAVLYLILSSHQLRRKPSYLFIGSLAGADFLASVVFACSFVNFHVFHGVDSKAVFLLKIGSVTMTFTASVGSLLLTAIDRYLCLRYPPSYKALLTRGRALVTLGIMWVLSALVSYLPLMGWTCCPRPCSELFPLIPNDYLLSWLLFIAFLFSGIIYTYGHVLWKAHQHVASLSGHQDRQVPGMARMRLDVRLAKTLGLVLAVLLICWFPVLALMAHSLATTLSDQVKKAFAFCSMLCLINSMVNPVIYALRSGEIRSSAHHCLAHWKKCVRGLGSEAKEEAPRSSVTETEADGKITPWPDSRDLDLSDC

In turn, `CC(C)=CCCC1(C)C=Cc2c(O)cc(CCCCCF)cc2O1` (stereo not shown) [5F-CBC, 7-(5-fluoropentyl)-2-methyl-2-(4-methyl-pent-3-enyl)-2H-chromen-5-ol] yielded an EC50 of 2.1 µM.

By EC50 is commonly meant the concentration at which the effect is half-maximal.
